Source: PubChem BioAssay (NCI)
Where “and” joins values, the source holds several entries; their conditions need not be identical. Equal values may be shown once.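 The compound was tested at five concentrations on cells cultured in 96-well plates, with a 48-hour exposure period. At the GI50, growth is halved. TGI is the concentration that stops growth completely.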

How the values were obtained:
Assay in all cases: DTP human tumour cell line panel, 48 h
SN12C renal = system: SN12C renal
CAKI-1 renal = system: CAKI-1 renal
SNB-75 CNS = system: SNB-75 CNS
SK-MEL-28 melanoma = system: SK-MEL-28 melanoma
DU-145 prostate = system: DU-145 prostate
MDA-MB-435 = system: MDA-MB-435
HCT-15 colon = system: HCT-15 colon
OVCAR-4 ovarian = system: OVCAR-4 ovarian
DMS 114 small cell lung = system: DMS 114 small cell lung
HOP-18 NSCLC = system: HOP-18 NSCLC

SMILES | GI50 (SN12C renal) [nM] | TGI (SN12C renal) | GI50 (CAKI-1 renal) | TGI (CAKI-1 renal) | GI50 (SNB-75 CNS) [nM] | TGI (SNB-75 CNS) | GI50 (SK-MEL-28 melanoma) [µM] | TGI (SK-MEL-28 melanoma) | GI50 (DU-145 prostate) [nM] | TGI (DU-145 prostate) [µM] | GI50 (MDA-MB-435) [µM] | TGI (MDA-MB-435) [µM] | GI50 (HCT-15 colon) [nM] | TGI (HCT-15 colon) | GI50 (OVCAR-4 ovarian) [nM] | TGI (OVCAR-4 ovarian) | TGI (DMS 114 small cell lung) [µM] | TGI (HOP-18 NSCLC) | GI50 (DMS 114 small cell lung) [nM] | GI50 (HOP-18 NSCLC)
CC12CCC=CC1CCC1C2CCC2(C)C(c3ccc(=O)oc3)CCC12O (stereo not drawn) | 42.2 | 0.571 µM | 94.2 nM | 0.548 µM | 28.2 | 0.164 µM | 0.256 | 1380 nM | 55.3 | 0.165 | 0.108 | 0.528 | 92.3 | 0.428 µM | 167 | 0.641 µM |  |  |  | 
COc1cc2c(cc1OC)-c1ccc3cc4c(cc3c1N(CCN1CCCC1)C2)OCO4 | 345 | 1.43 µM | 814 nM | 11.5 µM | 357 | 5.81 µM | 7.09 | 20300 nM | 376 | 2.5 | 1.36 | 6.13 | 1500 | 3.4 µM | 858 | 6.49 µM |  |  |  | 
c1ccc2[nH]c(-c3ccc(N4CCN(c5ccc(-c6nc7ccccc7[nH]6)cc5)CC4)cc3)nc2c1 | > 100000 | > 100 µM | > 100000 nM | > 100 µM | > 100000 | > 100 µM | 43 | > 100000 nM | 37500 | > 100 | > 100 | > 100 | > 100000 | > 100 µM | > 100000 | > 100 µM |  |  |  | 
CCc1ccc(NC(=O)Nc2c[nH]c3ccccc23)cc1 | 2220 | > 36.2 µM | 3590 nM | > 42 µM | 1010 | > 26.5 µM | > 39 | > 56600 nM | > 34000 | > 51.5 | 22.6 | > 49.5 | 17800 | > 55.2 µM | 10100 | > 54.7 µM |  |  |  | 
CCN(CC)CCOc1ccc(C(=C(C)c2ccc(Cl)cc2)c2ccc(OCCN(CC)CC)cc2)cc1 | 1190 | 2.88 µM | 504 nM | 1.02 µM | 49.9 | 1.66 µM | 0.602 | 1100 nM | 1090 | 3.47 | 0.558 | 1.02 | 556 | 1.08 µM | 586 | 1.32 µM |  |  |  | 
CCCC(O)[C@@H](O)c1ccc2c(c1O)C(=O)c1c(OC)cccc1C2=O (stereo partly drawn) |  | > 100 µM |  | > 100 µM |  | > 100 µM |  | > 100000 nM |  |  |  |  |  | 82.5 µM |  | > 100 µM | 61.9 | > 100 µM |  | 
OCC1OC(n2ccc3c2ncn2ncnc32)C(O)C1O (stereo not drawn) | 600 | > 100 µM | 2670 nM | > 100 µM | 4200 | 68.7 µM | > 72.9 | > 100000 nM | 379 | > 100 | 6.5 | > 100 | 470 | > 100 µM | 5100 | 63.1 µM |  |  |  | 
CCc1c(C)[nH]c(/C=C2\N=C(c3ccc[nH]3)C=C2OC)c1C | 627 | 15.6 µM | 292 nM | 3.53 µM | 269 | 0.71 µM | 0.365 | 1870 nM | 219 | 11 | 0.0733 | 1.42 | 93.5 | 3.75 µM | 893 | 12.5 µM |  |  |  | 
C=CCC(N[C@H](CO)C(C)C)c1cn(C(=O)OCC)c2ccccc12 (stereo partly drawn) | 19700 | 51.6 µM | 13800 nM | 41.1 µM | 69300 | > 100 µM | 53.6 | > 100000 nM | 30100 | > 100 | 20.3 | 50.5 | 32400 | > 100 µM | 49600 | > 100 µM |  |  |  | 
CC[C@](C)(O)C(=O)O[C@H]1C(=O)O[C@@H]2C[C@H]3C(C)=CC(=O)[C@@H](O)[C@]3(C)[C@H]3[C@@]4(O)OC[C@]32[C@@H]1[C@@H](C)[C@H]4O | 317 | 2.03 µM and 5.18 µM | 577 nM and 158 nM | 8.8 µM and 1.35 µM | 258 | 1.02 µM and 0.17 µM | 0.0609 | 264 nM and 160 nM |  | 2.9 |  | > 24.3 | 214 | 0.874 µM and 0.533 µM | 112 | 1.26 µM and 0.923 µM | < 0.0257 | 0.977 µM and 3.23 µM | < 12.4 | 162 nM and 359 nM
Nc1ncnc2sc(=S)c3c(c12)CCC3 | 32800 | > 100 µM | 30900 nM | > 100 µM | 88700 | > 100 µM | > 100 | > 100000 nM | 19100 | 57.4 | 46.9 | > 100 | 38200 | > 100 µM | 69800 | > 100 µM |  |  |  | 
O=C(O)CSSCC(=O)O |  | > 100 µM |  | > 100 µM |  | > 100 µM |  | > 100000 nM |  | > 100 |  | > 100 |  | > 100 µM |  | > 100 µM |  |  |  | 
